Assay results as given in patent US20060234278A1, “Sequences used to identify if a female mammal comprises a mutation in the alpha-fetoprotein sequence(S) or a partial or total deletion of the alpha-fetoprotein sequence(S)” (priority 1999, published 2006).

Experiments:
Type in all cases: in vivo, mouse
[1] = system: Gnrh2 gene expression in the hypothalamus; experiment: Real time PCR Gnrh2 gene expression in hypothalamus of prenatally ATD-treated AFP KO females; conditions: prenatal ATD-treated AFP KO mice (n=7), normalized to Hprt
Procedure: (§1) Females heterozygous for the Afp tm2Ibmm allele (CD1 strain, 8th backcross level) were mated with Afp tm2Ibmm homozygous males and housed under the conditions described above. They then received a daily subcutaneous injection in the neck of 4 mg of the aromatase inhibitor ATD (1, 4, 6-androstatrien-3,17-dione, Steraloids, Newport, R.I.) dissolved in propylene glycol, from the 13.5th day of gestation (day 0.5 is defined as the day of vaginal plug detection) until the end of gestation. Controls were injected with propylene glycol only. Pups were born naturally or retrieved by Caesarian operation on embryonic day 20.5. Blood from the mothers was taken from the hart and estradiol levels were measured by classical RIA assay. Fertility of female pups was tested at the age of 2-3 months. In parallel, sisters of the female pups tested were dissected at the age of 3 months and total RNA was extracted from the pituitary and the hypothalamus as described above. cDNA was obtained using the TaqMan Reverse Transcription Reagents kit (Applied Biosystems) and real time PCR was performed on the 7300 Real Time PCR System (Applied Biosystems) with the Platinum Quantitative PCR SuperMix-UDG kit (Invitrogen) and the TaqMan Gene Expression Assays (Applied Biosystems) for pituitary genes except for Egr1. […]

[2] = system: Ucp1, Isp2, Egr1, Gnrhr expression in the pituitary; experiment: Real time PCR gene expression in pituitary of prenatally ATD-treated AFP KO females; conditions: prenatal ATD-treated AFP KO females (n=7)
Procedure: as §1

AFP KO females = experiment: Fertility of AFP KO female pups after prenatal ATD treatment
Procedure: as §1

estrogen synthesis = experiment: Serum estradiol levels of ATD-treated gestating females by RIA assay; conditions: heterozygous gestating females, daily s.c. 4 mg ATD from day 13.5 of gestation; 10 pg/ml is the RIA detection limit
Procedure: as §1

Which “Gnrh2 expression level in hypothalamus” value [1] does the source give for `C[C@]12C=CC(=O)C=C1C=C[C@@H]1[C@@H]2CC[C@]2(C)C(=O)CC[C@@H]12` [ATD, 1,4,6-androstatrien-3,17-dione] here?
The value was “not increased”.

What about the “Pituitary gene expression levels vs untreated KO females” value ([2]; normalized to Hprt, p=0.044) of the same compound?
The value was “statistically different from those of the untreated KO females”.

What about the “Pituitary gene expression levels vs heterozygous untreated females” value ([2]; p=0.508, except Isp2 (p=0.014)) of the same compound?
Its value is “not statistically different from those of the heterozygous, untreated females”.

And the “Fertility of female pups” value (AFP KO females; AFP KO and heterozygous pups from ATD-injected mothers, tested at 2-3 months, 8 KO and 17 heterozygous pups tested)?
Its value is “fertile”.

And the Litter size (AFP KO females; litters born to prenatally ATD-treated AFP KO and heterozygous females)?
The Litter size was “normal size”.

And the Serum estradiol levels (estrogen synthesis)?
The Serum estradiol levels was < 10 pg/mL.
